Measurements: patent publication US20190071416A1, “COMPOUNDS FOR TREATMENT OF CANCER AND EPIGENETICS” (Agency For Science, Technology and Research, priority 2015, published 2019)

target: T1, SMYD3 (Homo sapiens, UniProt Q9H7B4); assay: SMYD3 biochemical assay (MTase-Glo, MAP3K2 peptide substrate); settings: Table 3; MTase assay, MAP3K2 peptide substrate; read-out: IC50
T1 sequence (Q9H7B4 1-428): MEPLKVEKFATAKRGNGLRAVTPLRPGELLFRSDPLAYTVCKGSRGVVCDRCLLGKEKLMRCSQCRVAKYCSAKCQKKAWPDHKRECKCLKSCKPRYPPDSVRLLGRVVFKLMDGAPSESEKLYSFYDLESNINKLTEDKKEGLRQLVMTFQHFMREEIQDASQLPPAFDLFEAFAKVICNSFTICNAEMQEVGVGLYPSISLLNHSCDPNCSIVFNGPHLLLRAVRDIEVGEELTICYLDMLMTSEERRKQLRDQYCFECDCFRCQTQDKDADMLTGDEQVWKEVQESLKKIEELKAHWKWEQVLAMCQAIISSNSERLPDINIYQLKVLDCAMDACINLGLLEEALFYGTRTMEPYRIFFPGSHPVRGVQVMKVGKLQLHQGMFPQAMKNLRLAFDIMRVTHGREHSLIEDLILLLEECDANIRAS
Procedure, shortened: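 Methylation of MAP3K2 peptide (10 µM final) with SAM (1.0 µM final) by SMYD3, 30 min at room temperature. SAH formed was enzymatically converted to ATP and detected as luminescence with MTase-Glo reagents; IC50 by non-linear regression.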

Row | SMILES | IC50 [nM]
1 | CCCOC(=O)N1CCN(C(=O)c2ccc3c(Cl)c4c(nc3c2)CC(c2ccc(C)cn2)CC4)CC1 (stereo not drawn) [A130, Propyl 4-(9-chloro-6-(5-methylpyridin-2-yl)-5,6,7,8-tetrahydroacridine-3-carbonyl)piperazine-1-carboxylate] | 130
2 | CCCOC(=O)N1CCN(C(=O)c2ccc3c(Cl)c4c(nc3c2)CC(c2ccc(C)cn2)CC4)C[C@H]1C (stereo partly drawn) [A131, Propyl (2R)-4-(9-chloro-6-(5-methylpyridin-2-yl)-5,6,7,8-tetrahydroacridine-3-carbonyl)-2-methylpiperazine-1-carboxylate] | 110
3 | CCCOC(=O)N1CCN(C(=O)c2ccc3c(Cl)c4c(nc3c2)CC(c2cc(C)ccn2)CC4)CC1 (stereo not drawn) [A132, Propyl 4-(9-chloro-6-(4-methylpyridin-2-yl)-5,6,7,8-tetrahydroacridine-3-carbonyl)piperazine-1-carboxylate] | 210
4 | CCCOC(=O)N1CCN(C(=O)c2ccc3c(Cl)c4c(nc3c2)CC(c2cc(C)ccn2)CC4)C[C@H]1C (stereo partly drawn) [A133, Propyl (2R)-4-(9-chloro-6-(4-methylpyridin-2-yl)-5,6,7,8-tetrahydroacridine-3-carbonyl)-2-methylpiperazine-1-carboxylate] | 120
5 | CCCOC(=O)N1CCN(C(=O)c2ccc3c(Cl)c4c(nc3c2)CC(c2ccncn2)CC4)CC1 (stereo not drawn) [A134, Propyl 4-(9-chloro-6-(pyrimidin-4-yl)-5,6,7,8-tetrahydroacridine-3-carbonyl)piperazine-1-carboxylate] | 140
6 | CCCOC(=O)N1CCN(C(=O)c2ccc3c(Cl)c4c(nc3c2)CC(CCN(C)C)CC4)C[C@H]1C (stereo partly drawn) [A135, Propyl (2R)-4-(9-chloro-6-(2-(dimethylamino)ethyl)-5,6,7,8-tetrahydroacridine-3-carbonyl)-2-methylpiperazine-1-carboxylate] | 75
7 | CCCOC(=O)N1CCN(C(=O)c2ccc3c(Cl)c4c(nc3c2)CC(CCN(C)C)CC4)C[C@@H]1C (stereo partly drawn) [A136, Propyl (2S)-4-(9-chloro-6-(2-(dimethylamino)ethyl)-5,6,7,8-tetrahydroacridine-3-carbonyl)-2-methylpiperazine-1-carboxylate] | 69
8 | C#CCC1CCc2c(nc3cc(C(=O)N4CCN(C(=O)OCCC)C[C@@H]4C)ccc3c2Cl)C1 (stereo partly drawn) [A137, Propyl (3S)-4-(9-chloro-6-(prop-2-yn-1-yl)-5,6,7,8-tetrahydroacridine-3-carbonyl)-3-methylpiperazine-1-carboxylate] | 290
9 | CCCOC(=O)N1CCN(C(=O)c2ccc3c(Cl)c4c(nc3c2)CC(c2ccnc(C#N)c2)CC4)CC1 (stereo not drawn) [A138, Propyl 4-(9-chloro-6-(2-cyanopyridin-4-yl)-5,6,7,8-tetrahydroacridine-3-carbonyl)piperazine-1-carboxylate] | 680
10 | CCCOC(=O)N1CCN(C(=O)c2ccc3c(Cl)c4c(nc3c2)CC(c2ccnc(C(N)=O)c2)CC4)CC1 (stereo not drawn) [A139, Propyl 4-(6-(2-carbamoylpyridin-4-yl)-9-chloro-5,6,7,8-tetrahydroacridine-3-carbonyl)piperazine-1-carboxylate] | 350
11 | CCCOC(=O)N1CCN(C(=O)c2ccc3c(Cl)c4c(nc3c2)CC(c2ccnc(C#N)c2)CC4)C[C@H]1C (stereo partly drawn) [A140, Propyl (2R)-4-(9-chloro-6-(2-cyanopyridin-4-yl)-5,6,7,8-tetrahydroacridine-3-carbonyl)-2-methylpiperazine-1-carboxylate] | 420
12 | CCCOC(=O)N1CCN(C(=O)c2ccc3c(Cl)c4c(nc3c2)CC(c2ccnc(C(N)=O)c2)CC4)C[C@H]1C (stereo partly drawn) [A141, Propyl (2R)-4-(6-(2-carbamoylpyridin-4-yl)-9-chloro-5,6,7,8-tetrahydroacridine-3-carbonyl)-2-methylpiperazine-1-carboxylate] | 230
13 | C#CCC1CCc2c(nc3cc(C(=O)N4CCN(C(=O)OCCC)[C@H](C)C4)ccc3c2Cl)C1 (stereo partly drawn) [A142, Propyl (2R)-4-(9-chloro-6-(prop-2-yn-1-yl)-5,6,7,8-tetrahydroacridine-3-carbonyl)-2-methylpiperazine-1-carboxylate] | 420
14 | CCCOC(=O)N1CCN(C(=O)c2ccc3c(Cl)c4c(nc3c2)CC(c2ccnc(C#N)c2)CC4)[C@@H](C)C1 (stereo partly drawn) [A143, Propyl (3S)-4-(9-chloro-6-(2-cyanopyridin-4-yl)-5,6,7,8-tetrahydroacridine-3-carbonyl)-3-methylpiperazine-1-carboxylate] | 460
15 | CCCOC(=O)N1CCN(C(=O)c2ccc3c(Cl)c4c(nc3c2)CC(c2ccnc(CN)c2)CC4)CC1 (stereo not drawn) [A144, Propyl 4-(6-(2-(aminomethyl)pyridin-4-yl)-9-chloro-5,6,7,8-tetrahydroacridine-3-carbonyl)piperazine-1-carboxylate] | 510
16 | CCCOC(=O)N1CCN(C(=O)c2ccc3c(Cl)c4c(nc3c2)CC(c2ccnc(C(N)=O)c2)CC4)[C@@H](C)C1 (stereo partly drawn) [A145, Propyl (3S)-4-(6-(2-carbamoylpyridin-4-yl)-9-chloro-5,6,7,8-tetrahydroacridine-3-carbonyl)-3-methylpiperazine-1-carboxylate] | 220
17 | C=CCC1CCCc2c1nc1cc(C(=O)N3CCN(C(=O)OCCC)CC3)ccc1c2Cl (stereo not drawn) [A146, Propyl 4-(5-allyl-9-chloro-5,6,7,8-tetrahydroacridine-3-carbonyl)piperazine-1-carboxylate] | 560

Row | SMILES | IC50 [nM]
18 | CCCOC(=O)N1CCN(C(=O)c2ccc3c(Cl)c4c(nc3c2)CC(c2ccnc(C#N)n2)CC4)CC1 (stereo not drawn) [A148, Propyl 4-(9-chloro-6-(2-cyanopyrimidin-4-yl)-5,6,7,8-tetrahydroacridine-3-carbonyl)piperazine-1-carboxylate] | 300
19 | C#Cc1ccc(C2CCc3c(nc4cc(C(=O)N5CCN(C(=O)OCCC)[C@H](C)C5)ccc4c3Cl)C2)nc1 (stereo partly drawn) [A149, Propyl (2R)-4-(9-chloro-6-(5-ethynylpyridin-2-yl)-5,6,7,8-tetrahydroacridine-3-carbonyl)-2-methylpiperazine-1-carboxylate] | 260
20 | C#Cc1ccc(C2CCc3c(nc4cc(C(=O)N5CCN(C(=O)OCCC)C[C@@H]5C)ccc4c3Cl)C2)nc1 (stereo partly drawn) [A150, Propyl (3S)-4-(9-chloro-6-(5-ethynylpyridin-2-yl)-5,6,7,8-tetrahydroacridine-3-carbonyl)-3-methylpiperazine-1-carboxylate] | 260
21 | CCCOC(=O)N1CCN(C(=O)c2ccc3c(Cl)c4c(nc3c2)CC(c2cnn(C)c2)CC4)CC1 (stereo not drawn) [A151, Propyl 4-(9-chloro-6-(1-methyl-1H-pyrazol-4-yl)-5,6,7,8-tetrahydroacridine-3-carbonyl)piperazine-1-carboxylate] | 46
22 | CCCOC(=O)N1CCN(C(=O)c2ccc3c(Cl)cc(-c4cccnc4)nc3c2)CC1 [B001, Propyl 4-(4-chloro-2-(pyridin-3-yl)quinoline-7-carbonyl)piperazine-1-carboxylate] | 2400
23 | CCCOC(=O)N1CCN(C(=O)c2ccc3c(Cl)cc(-c4ccccc4)nc3c2)CC1 [B002, Propyl 4-(4-chloro-2-phenylquinoline-7-carbonyl)piperazine-1-carboxylate] | 410
24 | CCCOC(=O)N1CCN(C(=O)c2ccc3c(Cl)c(CC)c(-c4ccccc4)nc3c2)CC1 [B004, Propyl 4-(4-chloro-3-ethyl-2-phenylquinoline-7-carbonyl)piperazine-1-carboxylate] | 1400
25 | CCCOC(=O)N1CCN(C(=O)c2ccc3c(Cl)cc(-c4cncc(C)c4)nc3c2)CC1 [B005, Propyl 4-(4-chloro-2-(5-methylpyridin-3-yl)quinoline-7-carbonyl)piperazine-1-carboxylate] | 2500
26 | CCCOC(=O)N1CCN(C(=O)c2ccc3c(Cl)c(C)c(-c4ccccc4)nc3c2)C[C@@H]1C [B006, Propyl (S)-4-(4-chloro-3-methyl-2-phenylquinoline-7-carbonyl)-2-methylpiperazine-1-carboxylate] | 160
27 | CCCOC(=O)N1CCN(C(=O)c2ccc3c(Cl)c(C)c(-c4ccccc4)nc3c2)C[C@H]1C [B007, Propyl (R)-4-(4-chloro-3-methyl-2-phenylquinoline-7-carbonyl)-2-methylpiperazine-1-carboxylate] | 220
28 | CCCOC(=O)N1CCN(C(=O)c2ccc3c(Cl)cc(-c4ccccn4)nc3c2)CC1 [B008, Propyl 4-(4-chloro-2-(pyridin-2-yl)quinoline-7-carbonyl)piperazine-1-carboxylate] | 1400
29 | CCCOC(=O)N1CCN(C(=O)c2ccc3c(Cl)cc(Cc4ccccc4)nc3c2)CC1 [B009, Propyl 4-(2-benzyl-4-chloroquinoline-7-carbonyl)piperazine-1-carboxylate] | 3300
30 | CCCOC(=O)N1CCN(C(=O)c2ccc3c(Cl)cc(-c4ccc(C)cc4)nc3c2)CC1 [B010] | 500
31 | CCCOC(=O)N1CCN(C(=O)c2ccc3c(Cl)cc(-c4cccc(C)c4)nc3c2)CC1 [B011, Propyl 4-(4-chloro-2-(m-tolyl)quinoline-7-carbonyl)piperazine-1-carboxylate] | 770
32 | CCCOC(=O)N1CCN(C(=O)c2ccc3c(Cl)cc(-c4ccccc4C)nc3c2)CC1 [B012, Propyl 4-(4-chloro-2-(o-tolyl)quinoline-7-carbonyl)piperazine-1-carboxylate] | 2900
33 | CCCOC(=O)N1CCN(C(=O)c2ccc3c(Cl)cc(-c4ccncc4)nc3c2)CC1 [B013, Propyl 4-(4-chloro-2-(pyridin-4-yl)quinoline-7-carbonyl)piperazine-1-carboxylate] | 950
